In assay [1] the test system is receptor of platelet-derived growth factor. Nature of the assay: Tyrosine phosphorylation of platelet-derived growth factor receptor. The format is cell-based.
In a further assay the target is IGF-1R (Homo sapiens, UniProt P08069). Nature of the assay: IGF-1R phosphorylation/autophosphorylation in intact FM55 melanoma cells (immunoprecipitation, Western blotting, OD). Also on record: The cells were then isolated and subjected to immuno-precipitation of the IGF-1R; endogenous in cells; host or cells: FM55 melanoma cells. Type of assay: cell-based. Particulars: for Level of IGF-1R phosphorylation in intact cells: OD, control cells = 100%. On the procedure: The isolated cells were lyzed in 10 ml ice-cold PBSTDS containing protease inhibitors (Carlberg, M., et al., J Biol Chem 271:17453-17462, 1996). 50 μl protein A or G agarose was added in 1 ml sample and incubated for 15 min at 4° C. on an orbital shaker. After centrifugation for 10 min at 10,000 r/min at 4° C. the supernatant was saved. The protein content was determined by a dye-binding assay with a reagent purchased from Bio-Rad. Bovine serum albumin was used as a standard. 15 μl Protein G Plus agarose and 5 μl anti-IGF-1R were added. After a 3 h incubation at 4° C. on an orbital shaker the precipitate was collected by pulse centrifugation in a micro centrifuge at 14,000×g for 10 s. The supernatant was discarded and the pellet was washed 3 times with PBSTDS.
IGF-1R, sequence (P08069 31-1367): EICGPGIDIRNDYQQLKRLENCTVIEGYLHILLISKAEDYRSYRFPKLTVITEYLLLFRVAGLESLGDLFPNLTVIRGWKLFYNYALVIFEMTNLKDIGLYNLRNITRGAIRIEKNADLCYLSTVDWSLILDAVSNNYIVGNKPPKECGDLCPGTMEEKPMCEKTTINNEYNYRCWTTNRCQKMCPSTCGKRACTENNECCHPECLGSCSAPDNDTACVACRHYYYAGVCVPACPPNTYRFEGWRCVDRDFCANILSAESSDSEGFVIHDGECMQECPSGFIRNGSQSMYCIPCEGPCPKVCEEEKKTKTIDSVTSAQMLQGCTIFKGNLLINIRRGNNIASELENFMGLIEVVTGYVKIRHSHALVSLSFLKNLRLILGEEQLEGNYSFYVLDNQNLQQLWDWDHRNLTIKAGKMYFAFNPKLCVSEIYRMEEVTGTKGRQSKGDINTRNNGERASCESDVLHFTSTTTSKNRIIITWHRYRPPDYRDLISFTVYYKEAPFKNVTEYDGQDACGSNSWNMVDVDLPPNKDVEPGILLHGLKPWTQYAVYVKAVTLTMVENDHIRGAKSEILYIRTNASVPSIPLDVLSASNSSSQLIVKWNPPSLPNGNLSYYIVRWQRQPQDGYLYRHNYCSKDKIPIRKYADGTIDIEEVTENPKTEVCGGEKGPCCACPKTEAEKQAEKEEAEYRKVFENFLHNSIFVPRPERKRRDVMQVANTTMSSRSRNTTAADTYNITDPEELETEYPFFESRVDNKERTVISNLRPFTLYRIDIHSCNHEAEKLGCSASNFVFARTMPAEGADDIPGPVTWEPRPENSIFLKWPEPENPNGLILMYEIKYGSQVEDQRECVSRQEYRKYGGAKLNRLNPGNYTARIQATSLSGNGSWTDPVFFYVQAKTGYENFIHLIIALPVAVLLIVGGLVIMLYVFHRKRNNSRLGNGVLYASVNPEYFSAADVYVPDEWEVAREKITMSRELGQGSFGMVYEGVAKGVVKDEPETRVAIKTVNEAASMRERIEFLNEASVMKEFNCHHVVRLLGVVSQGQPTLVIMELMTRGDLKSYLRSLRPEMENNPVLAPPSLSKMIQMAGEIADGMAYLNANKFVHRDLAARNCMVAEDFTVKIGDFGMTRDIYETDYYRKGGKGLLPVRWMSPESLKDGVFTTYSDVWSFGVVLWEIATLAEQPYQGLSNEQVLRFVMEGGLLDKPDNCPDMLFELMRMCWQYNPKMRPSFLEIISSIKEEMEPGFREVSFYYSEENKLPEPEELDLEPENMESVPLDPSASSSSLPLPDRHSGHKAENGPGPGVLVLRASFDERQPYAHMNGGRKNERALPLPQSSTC
Protein samples were solved in a 2×-sample buffer containing Laemmli buffer and 0.5% […] and boiled for 5 min at 96° C. Samples were separated by SDS-PAGE with a 4% stacking gel and 7.5% separation gel. Molecular weight markers (Bio Rad, Sweden) were run simultaneously in all experiments.
Following SDS-PAGE the proteins were transferred overnight to nitro-cellulose membranes (Hybond, Amersham, UK) and then blocked for 1 h at room temperature in a solution of 4% skimmed milk powder and 0.02% Tween 20 in PBS, pH 7.5. Incubations with the primary antibodies were performed for 1 h at room temperature, followed by 3 washes with PBS with Tween and incubation with the second antibody for 1 h room temperature. After another 3 washes the membranes were incubated with Streptavidin-labelled horseradish peroxidase for 30 min and then detected using Amersham ECL system (Amersham, UK) The films were scanned by Fluor-S (BioRad).
Melanoma cells (line FM55) were seeded in 6-cm dishes, at a concentration of 10,000 cells/cm^2 in Minimal Essential Medium supplemented with 10% fetal calf serum (FCS). […] Treatment with 0 μM represents untreated controls. The cells were then isolated and subjected to immuno-precipitation of the IGF-1R. The immunoprecipitates, containing purified IGF-1R, were fractionated by gel electrophoresis. Phosphorylation of IGF-1R was detected by an anti-phosphotyrosine antibody using Western blotting. The obtained signals represent phosphorylated IGF-1R and the intensity of signals represents amounts of phosphorylated IGF-1R. Details of the methods used are described above. The intensities are quantified by a scanner, which measures the optical density (OD) of the signals. For the control cells the OD is set at 100%. The blank (OD 0%) represents the background. The results given in Table 1 below are mean values of 3 experiments.
FM 55 melanoma cells were cultured in the same way as described in Experiment 1. When reaching a density of 65,000 cells/cm^2 in the dishes, they were treated for 1 h with 0.05 μM podophyllotoxin, deoxypodophyllotoxin, acetylpodophyllotoxin, epipodophyllotoxin, 4′-demethyl-podophyllotoxin and podophyllotoxone. The cells were then harvested for assay and quantification of IGF-1R autophosphorylation as described above. The values shown in Table 2 represent means of 3 experiments.
(In general: In western blotting, separated proteins are transferred to a membrane and probed.)

Another assay deals with FM55 melanoma cells. Nature of the assay: Cell viability (XTT), FM55. Type of assay: cell-based, human. Particulars: Homo sapiens. On the procedure:
(§1) Cell proliferation kit II (Roche Inc.) is based on calorimetric change of the yellow tetrazolium salt XTT in orange formazan dye by the respiratory chain of viable cells (Roehm, N W, et al., J Immunol Methods 142:257-265, 1991). Cells seeded at a concentration of 5000/well in 100 μl medium in a 96-well plate were treated with different drugs in the given concentration. After 24 or 48 h the cells were incubated, according to the manufacturer's protocol, with XTT labelling mixture. After 4 h the formazan dye is quantified using a scanning multiwell spectrophotometer with a 495-nm filter. The absorbance is directly correlated with number of viable cells. The standard absorbance curve was drawn by means of untreated cells seeded at a concentration of from 1000 to 10 000 cells/well with an increasing rate of 1000 cells/well. All standards and experiments were performed in triplicates.
5 different types of cell lines were seeded in 96-well plates (medium volume in a well was 100 μl), at a concentration of 10,000 cells/cm^2 in Minimal Essential Medium supplemented with fetal calf serum. When the cells had reached a concentration of 65,000 cells/cm^2, they were treated with different doses of podophyllotoxin and deoxypodophyllotoxin for 48 h. Cell viability was then assayed (see above). IC50 values for each inhibitor and cell line, calculated as the concentration, resulting in a 50% decrease in cell survival, are shown below. The results are based on 4 different experiments.
FM55 melanoma cells were cultured in the same way as described in Experiment 3 and were treated with different doses of podophyllotoxin analogues as described in Experiment 3.
Background: Tetrazolium assays rely on reduction of a dye to a coloured formazan, in cell work by metabolically active cells.

Assay [2] has as its system PC-3 prostate cancer cells. Briefly: Cell viability (XTT), PC-3. The format is cell-based. Particulars: Homo sapiens, 48 h. As for the experimental part:
as §1
5 different types of cell lines were seeded in 96-well plates (medium volume in a well was 100 μl), at a concentration of 10,000 cells/cm^2 in Minimal Essential Medium supplemented with fetal calf serum. When the cells had reached a concentration of 65,000 cells/cm^2, they were treated with different doses of podophyllotoxin and deoxypodophyllotoxin for 48 h. Cell viability was then assayed (see above). […]

Assay [3] has as its system K562/S chronic myeloid leukemia cells. Nature of the assay: Viability of leukemia cells, K562/S. Type of assay: cell-based, human. The following applies: Homo sapiens, 72 h, read-out: IC50 for viability of leukemia cell lines. As for the experimental part: The human chronic myeloid leukemia K562/S and K562/Vcr30 lines and the acute myeloid leukemia cell lines HL60/0 and HL60/Nov were obtained from ATCC. The K562/S and HL60/0 are wild type (non-resistant) cells, whereas K562/Vcr30 and HL60/Nov are cytostatic-resistant sublines. All leukemia cell lines were cultured in RPMI 1640 medium supplemented with 10% fetal bovine serum and with 2 mM glutamine, 1% benzyl-penicillin and streptomycin. The cells were grown in tissue culture flasks maintained at 95% air/5% CO2 atmosphere at 37° C. in a humidified incubator. For the experiments 25,000 cells were cultured in 60-mm plastic dishes or 96-well plastic plates. The experiments on leukemia cells were performed in collaboration with Associate professor Sigurd Vitols, Department of Pharmacology, Karolinska Hospital (Stockholm, Sweden).
as §1
The leukemia cell lines K562/S, K562/Vcr 30, HL60/0 and HL60/Nov were proven to express the IGF-1R. This was assayed by Western blotting analysis, as described in Methods and Experiment 1 and 2. The 4 leukemia cell lines were seeded in 96-well plates (medium volume in a well was 100 μl), in RPMI40 medium supplemented with fetal calf serum. After 24 h podophyllotoxin, deoxypodophyllotoxin and other derivatives were added at different concentrations for 72 h. Cell viability was then assayed (see above). IC50 values for each inhibitor and cell lines are shown below (Table 5). The results are based on 3 different experiments.

Read-outs that look alike come from different tables or passages of the source.

Regarding `COc1cc([C@@H]2c3cc4c(cc3[C@H](O)[C@H]3COC(=O)[C@H]23)OCO4)cc(OC)c1OC` [Podophyllotoxin, podophyllotoxin], the “interference with tyrosine phosphorylation of the receptor of platelet-derived growth factor” value in assay [1] is “Neither do they interfere”. For the same compound, the “inhibition of IGF-1R phosphorylation (in words)” value on IGF-1R (FM55 cells, 0.05 μM, 1 h) is listed as “potent inhibitors”. Moreover, the “Inhibitory effect on IGF-1R autophosphorylation in intact cells in relation to podophyllotoxin, Relative potency” value on IGF-1R (FM55 cells, 0.05 μM, 1 h, podophyllotoxin = 1, mean of 3) is recorded as 1. Further, the “Level of IGF-1R phosphorylation in intact cells” value at IGF-1R (FM55 cells, 1 μM, 1 h, mean of 3) was 8%; at IGF-1R (FM55 cells, 15 μM, 1 h, mean of 3) it was 4%; at IGF-1R (FM55 cells, 60 μM, 1 h, mean of 3), 2%. The “effect on IGF-1R phosphorylation (in words)” value at IGF-1R (FM55 cells, 1, 15, 60 μM, genistein statement at 60 μM) is listed as “almost completely blocks”. The “concentration sufficient to inactivate the IGF-1R, fold lower than for the anti-microtubule effect” value at IGF-1R (compared to anti-microtubule effect) is given as 100 fold. Moreover, the IC50 is 50 nM in the assay with FM55 melanoma cells (FM55, Experiment 4 (Table 4), read-out: IC50 for viability of FM55 cells); 40 nM with FM55 melanoma cells (FM55, melanoma, 48 h (Table 3), read-out: IC50 for cell viability); 60 nM in assay [2]; 4 nM in assay [3].

What is called IC50 is the concentration at which inhibition is half-maximal.

The values are drawn from US7709526B2, “Use of cyclolignans and new cyclolignans” (Biovitrum AB, priority 2001, dated 2010).
